Test results reported in patent US5606038A, “Amphiphilic polyene macrolide antibiotic compounds” (Competitive Technologies, Inc., priority 1995, dated 1997).
pEC50: −log10 of the molar value. Values after ≈ are worked out from the molar mass of the structure shown. Where two headings read alike, the source gives them in different places.

Assays:
Cryptococcus neoformans = assay: minimum inhibitory concentration, Cryptococcus neoformans, broth microdilution; type: cell-based; settings: 24 h
Description: (§1) Microorganism inocula was harvested from one to five day old cultures grown on Sabourand's dextrose agar. After two washes with sterile saline, the inocula were counted utilizing a hemacytometer and diluted or concentrated as required to 1×10^4 blastospores per ml. Sterile molten agar (at 50° C.) was inoculated, allowed to cool, and 10 mm diameter discs impregnated (from […] stock solutions) with each of the test compounds was placed on the surface of the agar. Zones of inhibition were measured after incubating the plates at 30° C. for 24-48 hours.
(§2) The compounds were then screened against three strains of three species of microorganisms: Candida albicans, Cryptococcus neoformans, and Aspergillus fumigatus using a conventional double dilution technique. All tests reported in Table II were done by broth microdilution in yeast nitrogen base-glucose using an inoculum of 1×10^4 blastospores per ml; the cultures were incubated at 37° C. for 24 hours, and the minimum concentration (in μg/ml) that prevents visible growth was recorded as the minimum inhibitory concentration.

Candida albicans [1] = assay: minimum inhibitory concentration, Candida albicans, broth microdilution; type: cell-based; settings: 24 h, 37° C.
Description: ^c minimum inhibitory concentration (see Example IV); three different
strains of Candida albicans were tested; all tests were done in broth
microdilution in yeast nitrogen baseglucose at 37° C. for 24 hours
the initial inoculum was 1 × 10^4 blastospores per ml
The minimum inhibitory concentration reported in Table I was obtained, and further confirmed as reported in Table II, by the methods described in the following Example IV.
as §1, §2

solubility in water = type: physicochemical
[2] = tested on: Candida albicans (isolate NIH A); assay: survival of mice infected with Candida albicans (Example V); type: in vivo, Candida albicans in ICR mice; settings: i.p. once per day for ten days, Example II 30 mg/kg, Amphotericin B 1 mg/kg
Text: Ten immunocompetent ICR mice weighing 30 g each in three groups were inoculated intravenously with 3.2×10^6 colony forming units of Candida albicans (isolate NIH A) per mouse.

[3] = critical micelle concentration in PBS by molar absorptivity at 409 nm; type: physicochemical; settings: PBS (pH 7.4), 37° C.
Text: In its monomeric state, Amphotericin B has a characteristic absorption band at 409 nm; upon aggregation, however, its apparent molar absorptivity decreases in magnitude [see Biochemistry 30:5707 (1991)]. Thus, by measuring its molar absorptivity as a function of the reciprocal of the macrolide concentration, one can estimate the critical micelle concentration. This can be shown mathematically by allowing T, m and P to represent the total, monomeric, and micellar concentrations (i.e. the concentration of the drug that is present in micellar form) of the macrolide, respectively, and if ε represents the apparent molar absorptivity and εm and εp are the molar absorptivity for the monomeric and micellar components, respectively, then it can be shown that ε=εp +(εm -εp)m/T. At concentrations in excess of the critical micelle concentration, m is a constant and ε is inversely proportional to T.
Using the method described previously, the critical micelle concentrations for Amphotericin B and the conjugates described in the preceding examples were determined and are reported in Table I describing the aggregation, antifungal and hemolytic properties of […] macrolide antibiotics (in μM amounts) according to the present invention.
^a critical micelle concentration was determined in PBS (pH 7.4) at […]

[4] = UV-vis spectroscopy of interaction with ergosterol-containing large unilamellar vesicles; settings: Example II: 2.6 μM; 1 mM egg phosphatidyl choline and 0.5 mM ergosterol; 20 minutes, 23° C.
Text: (§3) In order to confirm that the poly(ethylene glycol)conjugates of the present invention retain their ability to recognize ergosterol-rich bilayers, their interaction with sterol-containing large unilamellar vesicles (1000 A diameter, LUVs) by UV-vis spectroscopy using published techniques [see J. Am. Chem. Soc. 115:708 (1993)]. […] Thus, the poly(ethylene glycol) conjugates according to the present invention recognize ergosterol-rich bilayers in a way that is similar to Amphotericin B.

Candida albicans [5] = assay: K+ release from fungal cells; type: cell-based; settings: 3×10^7 fungal cells/ml, read-out: concentration for releasing 50% of the K+ from fungal cells
[6] = UV-vis spectroscopy of interaction with cholesterol-containing large unilamellar vesicles; settings: 2.6 μM; 1 mM egg PC and 0.5 mM cholesterol; 20 minutes, 23° C.
Text: as §3

Aspergillus fumigatus = assay: minimum inhibitory concentration, Aspergillus fumigatus, broth microdilution; type: cell-based; settings: 24 h, 37° C.
Description: as §1, §2

[7] = tested on: Candida albicans (isolate NIH A); assay: MIC against infecting isolate of Example V; type: cell-based; settings: 24 and 48 hours
C. neoformans = assay: second in vivo assay, survival of mice infected with C. neoformans; design: species or system C. neoformans in ICR mice; settings: 5 mg/kg subcutaneous BID
Description: Ten immunocompetent ICR mice weighing 30 g each in two groups were inoculated intravenously with 255 colony forming units of Cryptococcus neoformans (isolate NIH C-1) per mouse.
A second in vivo assay was conducted as in Example VI with the exception that infection was with 488 colony forming units of C. neoformans, and that the test compound was administered 5 mg/kg, subcutaneous, BID.

COCCOCCOCCOCCOCCOCCNC(=O)[C@H]1[C@@H]2C[C@@H](O[C@@H]3O[C@H](C)[C@@H](O)[C@H](N)[C@@H]3O)/C=C/C=C/C=C/C=C/C=C/C=C/C=C/[C@H](C)[C@@H](O)[C@@H](C)[C@H](C)OC(=O)C[C@H](O)C[C@H](O)CC[C@@H](O)[C@H](O)C[C@H](O)C[C@](O)(C[C@@H]1O)O2 [Example II]
MIC (Cryptococcus neoformans; C. neoformans (1), 37° C., read-out: minimum inhibitory concentration): 3.2 µg/mL (≈ 2.66 µM)
MIC (Cryptococcus neoformans; C. neoformans (2), 37° C., read-out: minimum inhibitory concentration): 3.2 µg/mL (≈ 2.66 µM)
MIC (Cryptococcus neoformans; read-out: minimum inhibitory concentration, C. neofornams (3), 37° C.): 3.2 µg/mL (≈ 2.66 µM)
MIC (Candida albicans [1]; C. albicans (1), read-out: minimum inhibitory concentration): 6.4 µg/mL
MIC (Candida albicans [1]; C. albicans (2), read-out: minimum inhibitory concentration): 3.2 µg/mL
MIC (Candida albicans [1]; C. albicans (3), read-out: minimum inhibitory concentration): 3.2 µg/mL
MIC (Candida albicans [1]; three strains of Candida albicans, yeast nitrogen base-glucose, 1 × 10^4 blastospores per ml, read-out: MIC (minimum inhibitory concentration)): 2.7 µM
solubility (solubility in water): ≥ 10000 µg/mL
percent survival ([2]; day 2 post-infection): 100%
percent survival ([2]; day 3 post-infection): 100%
percent survival ([2]; day 4 post-infection): 100%
percent survival ([2]; day 5 post-infection): 100%
percent survival ([2]; day 6 post-infection): 100%
percent survival ([2]; day 7 post-infection): 90%
percent survival ([2]; day 30 post-infection): 90%
cmc (critical micelle concentration) [3]: 25 µM
absorption spectrum change with ergosterol-containing vesicles [4]: strong diminution in the monomer band at 409 nm and new bands at 415, 390 and 375 nm
pEC50 (Candida albicans [5]): 6.00
absorption spectrum with cholesterol-containing vesicles [6]: essentially the same as that observed in the presence of egg phosphatidyl choline vesicles (without sterol)
MIC (Aspergillus fumigatus; A. fumigatus (1)): 6.4 µg/mL (≈ 5.33 µM)
MIC (Aspergillus fumigatus; A. fumigatus (2)): 3.2 µg/mL (≈ 2.66 µM)
MIC (Aspergillus fumigatus; A. fumigatus (3)): 3.2 µg/mL (≈ 2.66 µM)
MIC ([7]; in DMSO and water): 3.03 µg/mL (≈ 2.52 µM)
MIC ([7]; in water only): ≤ 6.06 µg/mL
percent survival (C. neoformans; day 11 post-infection): 100%
percent survival (C. neoformans; day 12 post-infection): 80%
percent survival (C. neoformans; day 13 post-infection): 60%
percent survival (C. neoformans; day 14 post-infection): 60%
percent survival (C. neoformans; day 15 post-infection): 60%
percent survival (C. neoformans; day 16 post-infection): 60%
percent survival (C. neoformans; day 17 post-infection): 60%
percent survival (C. neoformans; day 19 post-infection): 60%
percent survival (C. neoformans; day 20 post-infection): 60%
percent survival (C. neoformans; day 21 post-infection): 60%
percent survival (C. neoformans; day 22 post-infection): 60%
percent survival (C. neoformans; day 23 post-infection): 40%
percent survival (C. neoformans; day 24 post-infection): 20%
percent survival (C. neoformans; day 27 post-infection): 20%
percent survival (C. neoformans; day 28 post-infection): 10%
percent survival (C. neoformans; day 29 post-infection): 10%
percent survival (C. neoformans; day 30 post-infection): 0%
